Laboratory results reported in US20130052137A1, “PARA AMINO BENZOIC ACID BASED NANOTUBES” (priority 2009, published 2013).

SMILES | melting point
CCCCCCCCCCCC(=O)Nc1ccc(C(=O)Nc2ccccn2)cc1 [Compound 1a, N-(Pyridine-2-yl)-4-dodecanamido-benzamide] | 152 to 154 °C
CCCCCCCCCCCCCCCCCC(=O)Nc1ccc(C(=O)Nc2ccccn2)cc1 [Compound 1b, N-(Pyridin-2-yl)-4-stearamidobenzamide] | 140 to 142 °C
